Results taken from publication PMC9718554, “Discovery of a fragment hit compound targeting D-Ala:D-Ala ligase of bacterial peptidoglycan biosynthesis” (Journal of Enzyme Inhibition and Medicinal Chemistry, 2022).
Where two headings read alike, the source gives them in different places. One block for each compound: values may come before it.

Tests used:
[1] = Solubility at tested concentrations in the fragment library screening; format: physicochemical
Excerpt: (§1) Supplement IENZ_A_2149745_SM2502.zip/DDlB_CDR05_SI_20221103.xlsx, sheet "Fragment library screening" | column: Solubility at tested concentrations

[2] = molecular target: T1, E. coli DdlB enzyme (D-alanine:D-alanine ligase) (Escherichia coli, UniProt P07862); experiment: biochemical; settings: read-out: DdlB RA; for remaining activity at 1800 µM: tested concentration 1.8 mM; for remaining activity at 2000 µM: tested concentration 2.0 mM; for remaining activity at 1700 µM: tested concentration 1.7 mM; for remaining activity at 2200 µM: tested concentration 2.2 mM; for remaining activity at 2100 µM: tested concentration 2.1 mM; for remaining activity at 2300 µM: tested concentration 2.3 mM; for remaining activity at 1900 µM: tested concentration 1.9 mM
T1 construct: made in house; host or cells: E. coli

[3] = Solubility at tested concentrations (fragment library screening); format: physicochemical
Excerpt: as §1

[4] = at the Tested concentration [mM]

Solubility at tested concentrations [1, 4]: not soluble
Compound: Cc1cc(C)c2ccc(/C=N/O)nc2c1O [Compound 0422-0035]

Compound: O=C1CSC(c2ccccc2)N1CCc1ccccc1 (stereo not shown) [Compound 1410-0151]
remaining activity at 1800 µM [2]: 134% | Solubility at tested concentrations ([1]; tested concentration 1.8 mM): not soluble

Compound: O=C1CSC(c2ccccc2)N1c1ccccc1 (stereo not shown) [Compound 2339-2195]
remaining activity at 2000 µM [2]: 103% | Solubility at tested concentrations ([1]; tested concentration 2.0 mM): not soluble

Solubility at tested concentrations [1, 4]: not soluble
Compound: Cc1cccc2c(O)c(C(=O)O)cnc12 [Compound 4491-1619]

Compound: O=C(N/N=C/c1ccc2cccc(O)c2n1)c1ccco1 [Compound 8006-5465]
remaining activity at 1800 µM ([2]; residual activity): 72% | Solubility at tested concentrations ([3]; tested concentration 1.8 mM): not soluble

Compound: O=C(N/N=C/c1ccc2cccc(O)c2n1)c1ccncc1 [Compound 8006-6830]
remaining activity at 1700 µM ([2]; residual activity): 71% | Solubility at tested concentrations ([3]; tested concentration 1.7 mM): not soluble

Compound: Nc1cc(Br)cc2cccnc12 [Compound 8009-3726]
remaining activity at 2200 µM [2]: 89% | Solubility at tested concentrations ([3]; tested concentration 2.2 mM): not soluble

Compound: Cc1c(Cl)ccc(S(N)(=O)=O)c1Cl [Compound 8011-1291]
remaining activity at 2100 µM [2]: 69% | Solubility at tested concentrations ([3]; tested concentration 2.1 mM): not soluble

Compound: O=[N+]([O-])c1cc(Cl)c2cccnc2c1O [Compound 8011-4676]
remaining activity at 2200 µM ([2]; residual activity): 49% | Solubility at tested concentrations ([3]; tested concentration 2.2 mM): not soluble

Compound: Cc1cc(C)c2c(=O)[nH]n(C3CCCCCC3)c2n1 [Compound 8016-0079]
remaining activity at 2300 µM [2]: 81% | Solubility at tested concentrations ([3]; tested concentration 2.3 mM): not soluble

Compound: O=[N+]([O-])c1cc(Cl)c(O)c2ncccc12 [Compound 8017-0599]
remaining activity at 2200 µM ([2]; residual activity): 55% | Solubility at tested concentrations ([3]; tested concentration 2.2 mM): not soluble

Compound: COc1cccc2c1ncc1c(=O)n3cccc(O)c3nc12 [Compound 8018-0164]
remaining activity at 1700 µM [2]: 72% | Solubility at tested concentrations ([3]; tested concentration 1.7 mM): not soluble

Compound: COc1ccc(-c2ncc(C(=O)O)c(=O)[nH]2)cc1OC [Compound 8020-2710]
remaining activity at 1800 µM ([2]; residual activity): 91% | Solubility at tested concentrations ([3]; tested concentration 1.8 mM): not soluble

Compound: COc1ccc(Cc2ccc(F)cc2)cc1B(O)O [Compound 8020-3675]
remaining activity at 1900 µM [2]: 52% | Solubility at tested concentrations ([1]; tested concentration 1.9 mM): not soluble

Solubility at tested concentrations [1, 4]: not soluble
Compound: CCc1c(C)[nH]c(=O)c(C(=O)O)c1C#N [Compound 8020-6317]

Compound: N#Cc1c2c([nH]c(=O)c1C(=O)O)CCCC2 [Compound 8020-6318]
remaining activity at 2300 µM ([2]; residual activity): 93% | Solubility at tested concentrations ([3]; tested concentration 2.3 mM): not soluble

Compound: Cc1cccc(CNC(=O)c2ccc3cccc(O)c3n2)c1 [Compound C066-5543]
remaining activity at 1700 µM ([2]; residual activity): 94% | Solubility at tested concentrations ([3]; tested concentration 1.7 mM): not soluble

Compound: O=C(O)c1nccnc1C(=O)Nc1cccc(Cl)c1 [Compound C612-0847]
remaining activity at 1800 µM ([2]; residual activity): 52% | Solubility at tested concentrations ([3]; tested concentration 1.8 mM): not soluble

Compound: O=C(O)c1nccnc1C(=O)Nc1ccc([N+](=O)[O-])cc1 [Compound C612-1047]
remaining activity at 1700 µM [2]: 38% | Solubility at tested concentrations ([1]; tested concentration 1.7 mM): not soluble

Compound: CCOc1ccc2c(c1)cc(C(=O)NC)n2C [Compound D291-1849]
remaining activity at 2600 µM ([2]; tested concentration 2.6 mM): 95% | Solubility at tested concentrations ([3]; tested concentration 2.6 mM): not soluble

Solubility at tested concentrations [1, 4]: not soluble
Compound: O=S(=O)(c1c[nH]cn1)N1CCCC1c1cccc(F)c1 (stereo not shown) [Compound D399-0575]

Compound: CC1CCN(S(=O)(=O)c2cnc(O)[nH]c2=O)CC1 [Compound D668-0109]
remaining activity at 1800 µM ([2]; residual activity): 97% | Solubility at tested concentrations ([3]; tested concentration 1.8 mM): not soluble

Compound: COc1ccc(-c2ccc(C(=O)O)c(=O)[nH]2)cc1 [Compound D724-1039]
remaining activity at 2000 µM ([2]; residual activity): 76% | Solubility at tested concentrations ([3]; tested concentration 2.0 mM): not soluble

Solubility at tested concentrations [1, 4]: not soluble
Compound: O=C(O)c1ccc(-c2ccccc2)nc1O [Compound D724-1054]

Solubility at tested concentrations [1, 4]: not soluble
Compound: CC1=C(c2cccc(Cl)c2)S(=O)(=O)N=C1NC(C)C [Compound E013-2266]

Compound: COCCNc1c(-c2ccc(C)cc2)c(=O)c1=O [Compound E470-0131]
remaining activity at 2000 µM [2]: 78% | Solubility at tested concentrations ([3]; tested concentration 2.0 mM): not soluble

Compound: Cc1ccc(-c2c(N(C)c3ccc(C)cc3)c(=O)c2=O)cc1 [Compound E470-0191]
remaining activity at 1700 µM [2]: 73% | Solubility at tested concentrations ([1]; tested concentration 1.7 mM): not soluble

Compound: CC1CCN(c2c(-c3ccccc3)c(=O)c2=O)CC1 [Compound E470-0346]
remaining activity at 2000 µM [2]: 98% | Solubility at tested concentrations ([1]; tested concentration 2.0 mM): not soluble

Compound: O=c1c(NCC2CCCO2)c(-c2ccccc2)c1=O (stereo not shown) [Compound E470-0384]
remaining activity at 1900 µM [2]: 81% | Solubility at tested concentrations ([1]; tested concentration 1.9 mM): not soluble

Compound: CCC(C)(C)Nc1c(-c2ccccc2)c(=O)c1=O [Compound E470-0411]
remaining activity at 2100 µM [2]: 48% | Solubility at tested concentrations ([3]; tested concentration 2.1 mM): not soluble

Compound: CC1Cc2ccccc2N1c1c(-c2ccccc2)c(=O)c1=O (stereo not shown) [Compound E470-0446]
remaining activity at 1700 µM [2]: 2.16% | Solubility at tested concentrations ([1]; tested concentration 1.7 mM): not soluble

Compound: O=c1c(NCc2ccco2)c(-c2ccccc2)c1=O [Compound E470-0461]
remaining activity at 2000 µM [2]: 137% | Solubility at tested concentrations ([1]; tested concentration 2.0 mM): not soluble

Compound: Cc1cccc(Nc2c(-c3ccccc3)c(=O)c2=O)c1 [Compound E470-0476]
remaining activity at 1900 µM [2]: 43% | Solubility at tested concentrations ([1]; tested concentration 1.9 mM): not soluble

Solubility at tested concentrations [1, 4]: not soluble
Compound: COc1ccccc1NC(=O)NC1COc2ccccc2C1 (stereo not shown) [Compound G765-0207]

Compound: O=C(NC1CCCCC1)c1ccc2cccc(O)c2n1 [Compound G900-0104]
remaining activity at 1800 µM ([2]; residual activity): 80% | Solubility at tested concentrations ([3]; tested concentration 1.8 mM): not soluble

Compound: CCc1cccc(NC(=O)c2ccc3cccc(O)c3n2)c1 [Compound G900-0169]
remaining activity at 1700 µM [2]: 69% | Solubility at tested concentrations ([3]; tested concentration 1.7 mM): not soluble

Compound: Cc1cc(C)cc(NC(=O)c2ccc3cccc(O)c3n2)c1 [Compound G900-0230]
remaining activity at 1700 µM [2]: 92% | Solubility at tested concentrations ([3]; tested concentration 1.7 mM): not soluble

Compound: Cc1cc(C2CCCN2Cc2ccccc2O)on1 (stereo not shown) [Compound J006-2498]
remaining activity at 2300 µM [2]: 90% | Solubility at tested concentrations ([3]; tested concentration 2.3 mM): not soluble

Compound: O=C(Cc1c[nH]c2ncccc12)NCC1CCCCC1 [Compound M508-0609]
remaining activity at 1800 µM ([2]; residual activity): 92% | Solubility at tested concentrations ([3]; tested concentration 1.8 mM): not soluble

Compound: Oc1cc(-c2ccccc2)cc2c1nnc1ncnn12 [Compound Y021-2954]
remaining activity at 1900 µM ([2]; residual activity): 79% | Solubility at tested concentrations ([3]; tested concentration 1.9 mM): not soluble

Compound: Oc1cccc2c1nnc1nc(-c3cccnc3)nn12 [Compound Y021-2955]
remaining activity at 1900 µM ([2]; residual activity): 45% | Solubility at tested concentrations ([3]; tested concentration 1.9 mM): not soluble

Solubility at tested concentrations [1, 4]: not soluble
Compound: Cc1cc(C)c(S(=O)(=O)N(C)C2CCCCC2)c(C)c1 [Compound Y030-0169]

Compound: O=C(O)c1cnc2c(OC(F)(F)F)cccc2c1O [Compound Y042-3118]
remaining activity at 1800 µM ([2]; residual activity): 88% | Solubility at tested concentrations ([3]; tested concentration 1.8 mM): not soluble

Compound: CC(C)c1ccc(C(=O)Nc2nnc[nH]2)cc1 [Compound Y200-5752]
remaining activity at 2200 µM ([2]; residual activity): 52% | Solubility at tested concentrations ([3]; tested concentration 2.2 mM): not soluble

Compound: Cc1ccc(CS(=O)(=O)N2CCCCC2)cc1 [Compound Y300-3037]
remaining activity at 2400 µM ([2]; tested concentration 2.4 mM): 88% | Solubility at tested concentrations ([3]; tested concentration 2.4 mM): not soluble

Solubility at tested concentrations [1, 4]: not soluble
Compound: c1ccc(-c2nnc(CC34CC5CC(CC(C5)C3)C4)o2)nc1 [Compound Y502-6922]

Compound: Cc1cc(N)nn1CC(=O)O [Compound Y504-8763]
remaining activity at 3200 µM ([2]; tested concentration 3.2 mM): 57% | Solubility at tested concentrations ([3]; tested concentration 3.2 mM): not soluble
